Source: publication PMC11783601, “Analogue-Sensitive Inhibition of Histone Demethylases Uncovers Member-Specific Function in Ribosomal Protein Synthesis” (Journal of the American Chemical Society, 2025)
“Also recorded” adds a separate entry of the source.

How the values were obtained:
TET1 = biological target: T1, TET1 (Homo sapiens, UniProt Q8NFU7); assay: Activity of full-length TET in HEK293T cells, 5hmC dot blot; type: cell-based; settings: dot-blot with 5hmC antibody
T1 construct: transfected with full-length TET1/3 constructs; expressed in transfected cells; host or cells: HEK293T
Protocol: (§1) were quantified with Bradford assay (Bio-Rad laboratories) using BSA as a standard and used for
(§2) 14. Expression and activity of full-length TET1 and 3 in HEK293T cells
(§3) To determine the effect of 6A on TET1 and TET3 activity, HEK293T cells were plated in 6 well
(§4) plates and transfected with full-length TET1/3 constructs. Briefly, 2ug of TET1/3 or Empty Vector
(§5) control per well was added to 200µL of JetOptimus buffer and vortexed followed by addition of
(§6) 3µL JetOptimus reagent. The solution was vortexed and left to sit at room temperature for 10
(§7) minutes. The solution was then added to 1.8mL of DMEM and added to the cells in culture plate.
(§8) The cells were left for 4 hours at 37 °C incubator at 5% CO2. The media was aspirated and replaced
(§9) with 2mL of DMEM and 100µM of 6A was added or equivalent volume of DMSO and left in the
(§10) incubator for 24 hours. Cells were then collected and subject to genomic DNA isolation using
(§11) Fisher GeneJET gemoic DNA Purification Kit (Fisher K0721) following manufactures protocol.
(§12) 1000ng of gDNA, as measured via nanodrop, was then subject to Dot Blot experiment. Briefly,
(§13) 20µL of 1000ng gDNA was added to 40µL of 2M NaOH-50mM EDTA solution for 3 minutes at
(§14) room temperature. 140µL of 10mM Tris/1mM EDTA pH 8.0 (TE) buffer and heated at 95 °C for […]

TET3 = biological target: T2, TET3 (Homo sapiens, UniProt O43151); assay: as above; type: cell-based; settings: dot-blot with 5hmC antibody
T2 construct: transfected with full-length TET1/3 constructs; expressed in transfected cells; host or cells: HEK293T
Protocol: as §1, §2, §3, §4, §5, §6, §7, §8, §9, §10, §11, §12, §13, §14

FTO = biological target: T3, FTO (Homo sapiens, UniProt Q9C0B1); assay: MALDI-based assay on m6A RNA substrate; type: biochemical; settings: MALDI-TOF, m6A oligonucleotide
T3 construct: we recombinantly expressed the catalytic domains of 12 wild type dioxygenases; His (N); made in house; host or cells: E. coli BL21 (DE3)
Protocol: (§15) MALDI-based assay for FTO and ALKBH5: To determine the enzymatic activity of FTO and
(§16) ALKBH5 recombinant proteins in the presence of L-Leu NOG 6, a previously published methods
(§17) were utilized.15, 18 Briefly,10 µM of each protein was incubated in the presence of 10 µM RNA
(§18) 7.5, 150 mM KCl, 50 µM L-Leu NOG or equivalent volume of water in 10 µL aliquots. The
(§19) samples were placed on ice for 10 minutes followed by addition of 200 µM 2OG or equivalent
(§20) volume of water. After incubation at 37 °C for 30 minutes, samples were desalted with 3 µL of BT
(§21) spotted on a MALDI plate with 1uL sample and 1uL of 3-HPA matrix and monitored with Bruker
(§22) FlexControl in the reflectron negative mode and analyzed on Bruker FlexAnalysis software.

ALKBH5 = biological target: T4, ALKBH5 (Homo sapiens, UniProt Q6P6C2); assay: MALDI-based assay on m6A RNA substrate; type: biochemical; settings: MALDI-TOF, m6A oligonucleotide
T4 construct: we recombinantly expressed the catalytic domains of 12 wild type dioxygenases; His; made in house; host or cells: E. coli BL21 (DE3)
Protocol: as §15, §16, §17, §18, §19, §20, §21, §22

wild type KDM4A = biological target: T5, wild type KDM4A (Homo sapiens, UniProt O75164); assay: MALDI-MS end-point demethylase assay on H3K9me3 peptide; type: biochemical
T5 construct: human KDM4A-jmjC domain (catalytic domain of KDM4A); 6xHis (N); host or cells: E. coli BL21 (DE3)
T5 sequence (O75164 142-308 limits assumed): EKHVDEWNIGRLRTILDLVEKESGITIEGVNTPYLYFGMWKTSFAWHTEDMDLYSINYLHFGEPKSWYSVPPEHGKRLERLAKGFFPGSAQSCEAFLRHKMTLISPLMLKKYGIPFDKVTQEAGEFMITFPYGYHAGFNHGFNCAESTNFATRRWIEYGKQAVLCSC
Description: To develop an appropriate inhibitor, we selected N-oxalyl glycine (NOG, 2) scaffold because of its structural similarity with 2OG and the ability to inhibit 2OG-utilizing enzymes including KDMs (Figure 1C).[29]−[31] Substituting −CH2– at C3 of 2OG with −NH– in NOG prevents its oxidative decarboxylation by KDMs, making the inhibitor cofactor-competitive. […] We synthesized a panel of eight NOG analogues (3–10), derived from L-amino acids, carrying varied steric substituents at C4, with the reasoning that a bulky substituent at C4 would selectively fit into the expanded pocket of F185A over wild type KDM4A (Figures 2B and S1–S6, Schemes S1 and S2). The inhibitory effect of each compound was determined based on the extent of enzyme-catalyzed demethylation of a canonical peptide substrate corresponding to the N-terminus of histone 3 carrying trimethylated lysine at position 9 (H3K9me3). […] Such orthogonal inhibition of the engineered demethylase constitutes a powerful chemical probe to study the functions of a specific member of an enzyme family without issues of off-target activity.
assay (Biorad) kit with BSA concentrations as a standard. […]
8. […]
2 mM L-ascorbic acid with a total assay volume of 10 µL. Fe(II) supplement and L-ascorbic acid
Lastly, the 2OG and peptide were
positive mode and analyzed on Bruker FlexAnalysis software. The percent demethylated peptide
the multiple demethylation events on the peptide. […]

PHD3 (EGLN3) = biological target: T6, PHD3 (EGLN3) (Homo sapiens, UniProt Q9H6Z9); assay: MALDI-based assay EGLN3 prolyl hydroxylation of peptide; type: biochemical; settings: MALDI-TOF, peptide substrate
T6 construct: Full length EGLN3 construct plasmid with; TEV-His (N); host or cells: E. coli BL21 (DE3)
Protocol: demethylation events on the peptide. The percent peak area was calculated, and the K27me2, me1,
and me0 peaks were summed to get the relative percent demethylated peptide.
as §15, §16, §17, §18, §19, §20, §21, §22
Relative inhibition was monitored via assessing percent product decrease with L-Leu NOG
MALDI-based assay for C14orf169 (NO66) and MINA: To monitor the enzymatic activity of […]
1 µL S-DHB matrix were spotted on a MALDI plate and monitored with Bruker FlexControl in
the reflectron positive mode and analyzed on Bruker FlexAnalysis software. […]
was monitored via assessing percent product decrease with L-Leu NOG samples compared to no […]
monitored following a reported method.19 To monitor the enzymatic activity of EGLN1 and 3 […]

T6 sequence (Q9H6Z9 whole entry): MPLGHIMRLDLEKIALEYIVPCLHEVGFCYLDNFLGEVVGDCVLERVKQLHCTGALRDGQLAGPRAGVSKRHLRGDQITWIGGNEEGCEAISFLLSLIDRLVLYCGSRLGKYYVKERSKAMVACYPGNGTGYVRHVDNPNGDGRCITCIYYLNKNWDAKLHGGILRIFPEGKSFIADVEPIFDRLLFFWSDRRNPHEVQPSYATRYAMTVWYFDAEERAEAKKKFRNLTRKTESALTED
T1 sequence (Q8NFU7 whole entry): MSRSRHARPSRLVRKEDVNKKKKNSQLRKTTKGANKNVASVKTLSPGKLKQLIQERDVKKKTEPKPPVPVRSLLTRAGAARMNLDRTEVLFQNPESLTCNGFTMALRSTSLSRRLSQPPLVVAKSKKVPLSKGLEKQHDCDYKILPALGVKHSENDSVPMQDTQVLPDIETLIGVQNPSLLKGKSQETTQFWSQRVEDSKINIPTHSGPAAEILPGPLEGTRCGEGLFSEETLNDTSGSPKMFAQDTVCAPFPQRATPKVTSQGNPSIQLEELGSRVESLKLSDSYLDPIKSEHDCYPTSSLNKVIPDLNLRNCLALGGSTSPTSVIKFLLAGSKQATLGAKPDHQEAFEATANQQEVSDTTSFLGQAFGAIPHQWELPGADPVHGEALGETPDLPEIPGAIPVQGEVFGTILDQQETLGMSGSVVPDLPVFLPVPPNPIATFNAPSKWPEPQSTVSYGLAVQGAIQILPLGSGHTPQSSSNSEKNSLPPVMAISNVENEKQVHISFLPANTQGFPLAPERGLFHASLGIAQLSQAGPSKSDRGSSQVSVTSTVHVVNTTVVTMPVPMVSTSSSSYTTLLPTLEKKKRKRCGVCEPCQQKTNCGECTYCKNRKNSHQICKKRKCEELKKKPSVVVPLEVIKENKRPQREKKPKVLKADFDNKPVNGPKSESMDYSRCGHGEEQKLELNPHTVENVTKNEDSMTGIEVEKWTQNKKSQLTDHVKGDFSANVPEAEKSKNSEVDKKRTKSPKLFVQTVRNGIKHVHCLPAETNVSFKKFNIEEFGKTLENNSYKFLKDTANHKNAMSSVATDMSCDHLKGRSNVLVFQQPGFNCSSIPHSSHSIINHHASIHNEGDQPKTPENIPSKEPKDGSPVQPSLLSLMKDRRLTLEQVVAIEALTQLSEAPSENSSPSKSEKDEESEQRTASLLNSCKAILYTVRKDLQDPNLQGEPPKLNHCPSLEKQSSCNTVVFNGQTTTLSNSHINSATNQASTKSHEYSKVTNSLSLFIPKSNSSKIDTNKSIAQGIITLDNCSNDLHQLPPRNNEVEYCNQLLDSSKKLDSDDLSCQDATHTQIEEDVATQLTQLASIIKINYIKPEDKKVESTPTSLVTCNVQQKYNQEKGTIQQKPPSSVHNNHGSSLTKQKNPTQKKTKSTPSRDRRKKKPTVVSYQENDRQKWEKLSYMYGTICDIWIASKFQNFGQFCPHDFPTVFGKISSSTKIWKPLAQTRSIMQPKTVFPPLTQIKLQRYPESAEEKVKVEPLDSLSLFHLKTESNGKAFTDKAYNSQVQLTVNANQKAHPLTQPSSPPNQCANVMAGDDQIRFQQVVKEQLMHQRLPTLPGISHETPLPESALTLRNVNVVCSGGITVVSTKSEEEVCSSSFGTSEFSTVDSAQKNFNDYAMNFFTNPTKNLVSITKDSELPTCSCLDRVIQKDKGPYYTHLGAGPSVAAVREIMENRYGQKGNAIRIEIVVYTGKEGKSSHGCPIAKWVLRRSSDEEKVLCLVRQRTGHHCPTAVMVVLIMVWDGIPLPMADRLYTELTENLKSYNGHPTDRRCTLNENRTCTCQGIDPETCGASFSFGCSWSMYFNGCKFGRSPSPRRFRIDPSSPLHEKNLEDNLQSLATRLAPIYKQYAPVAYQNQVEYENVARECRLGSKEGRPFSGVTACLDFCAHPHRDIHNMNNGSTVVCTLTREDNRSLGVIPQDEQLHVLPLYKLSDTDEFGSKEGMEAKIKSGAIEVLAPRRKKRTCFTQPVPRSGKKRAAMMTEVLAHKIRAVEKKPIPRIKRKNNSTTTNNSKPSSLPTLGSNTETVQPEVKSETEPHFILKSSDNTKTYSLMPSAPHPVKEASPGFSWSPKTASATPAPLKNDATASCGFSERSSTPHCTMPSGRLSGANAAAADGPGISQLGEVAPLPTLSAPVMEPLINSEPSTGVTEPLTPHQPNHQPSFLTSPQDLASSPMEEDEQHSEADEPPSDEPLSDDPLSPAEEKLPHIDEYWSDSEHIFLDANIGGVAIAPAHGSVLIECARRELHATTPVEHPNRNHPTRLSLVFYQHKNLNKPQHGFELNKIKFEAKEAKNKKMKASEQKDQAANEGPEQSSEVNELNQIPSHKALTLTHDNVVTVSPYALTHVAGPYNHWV
T4 sequence (Q6P6C2 67-394 limits assumed): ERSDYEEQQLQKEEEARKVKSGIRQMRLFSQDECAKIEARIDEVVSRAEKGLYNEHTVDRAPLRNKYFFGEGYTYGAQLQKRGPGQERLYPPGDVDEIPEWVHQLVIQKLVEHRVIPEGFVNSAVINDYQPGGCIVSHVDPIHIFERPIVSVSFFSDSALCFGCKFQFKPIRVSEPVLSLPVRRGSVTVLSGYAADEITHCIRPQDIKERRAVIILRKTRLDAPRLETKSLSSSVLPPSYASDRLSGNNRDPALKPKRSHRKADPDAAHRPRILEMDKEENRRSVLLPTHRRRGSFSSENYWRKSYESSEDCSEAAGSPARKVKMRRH
T3 sequence (Q9C0B1 32-327 limits assumed): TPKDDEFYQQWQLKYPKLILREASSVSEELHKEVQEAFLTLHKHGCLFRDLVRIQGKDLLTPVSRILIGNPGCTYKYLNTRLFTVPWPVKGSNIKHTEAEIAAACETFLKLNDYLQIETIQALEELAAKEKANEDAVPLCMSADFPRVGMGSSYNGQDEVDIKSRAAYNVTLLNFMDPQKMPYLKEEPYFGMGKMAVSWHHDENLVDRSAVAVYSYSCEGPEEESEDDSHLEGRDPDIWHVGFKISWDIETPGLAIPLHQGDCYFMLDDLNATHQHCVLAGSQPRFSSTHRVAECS
T2 sequence (O43151 whole entry): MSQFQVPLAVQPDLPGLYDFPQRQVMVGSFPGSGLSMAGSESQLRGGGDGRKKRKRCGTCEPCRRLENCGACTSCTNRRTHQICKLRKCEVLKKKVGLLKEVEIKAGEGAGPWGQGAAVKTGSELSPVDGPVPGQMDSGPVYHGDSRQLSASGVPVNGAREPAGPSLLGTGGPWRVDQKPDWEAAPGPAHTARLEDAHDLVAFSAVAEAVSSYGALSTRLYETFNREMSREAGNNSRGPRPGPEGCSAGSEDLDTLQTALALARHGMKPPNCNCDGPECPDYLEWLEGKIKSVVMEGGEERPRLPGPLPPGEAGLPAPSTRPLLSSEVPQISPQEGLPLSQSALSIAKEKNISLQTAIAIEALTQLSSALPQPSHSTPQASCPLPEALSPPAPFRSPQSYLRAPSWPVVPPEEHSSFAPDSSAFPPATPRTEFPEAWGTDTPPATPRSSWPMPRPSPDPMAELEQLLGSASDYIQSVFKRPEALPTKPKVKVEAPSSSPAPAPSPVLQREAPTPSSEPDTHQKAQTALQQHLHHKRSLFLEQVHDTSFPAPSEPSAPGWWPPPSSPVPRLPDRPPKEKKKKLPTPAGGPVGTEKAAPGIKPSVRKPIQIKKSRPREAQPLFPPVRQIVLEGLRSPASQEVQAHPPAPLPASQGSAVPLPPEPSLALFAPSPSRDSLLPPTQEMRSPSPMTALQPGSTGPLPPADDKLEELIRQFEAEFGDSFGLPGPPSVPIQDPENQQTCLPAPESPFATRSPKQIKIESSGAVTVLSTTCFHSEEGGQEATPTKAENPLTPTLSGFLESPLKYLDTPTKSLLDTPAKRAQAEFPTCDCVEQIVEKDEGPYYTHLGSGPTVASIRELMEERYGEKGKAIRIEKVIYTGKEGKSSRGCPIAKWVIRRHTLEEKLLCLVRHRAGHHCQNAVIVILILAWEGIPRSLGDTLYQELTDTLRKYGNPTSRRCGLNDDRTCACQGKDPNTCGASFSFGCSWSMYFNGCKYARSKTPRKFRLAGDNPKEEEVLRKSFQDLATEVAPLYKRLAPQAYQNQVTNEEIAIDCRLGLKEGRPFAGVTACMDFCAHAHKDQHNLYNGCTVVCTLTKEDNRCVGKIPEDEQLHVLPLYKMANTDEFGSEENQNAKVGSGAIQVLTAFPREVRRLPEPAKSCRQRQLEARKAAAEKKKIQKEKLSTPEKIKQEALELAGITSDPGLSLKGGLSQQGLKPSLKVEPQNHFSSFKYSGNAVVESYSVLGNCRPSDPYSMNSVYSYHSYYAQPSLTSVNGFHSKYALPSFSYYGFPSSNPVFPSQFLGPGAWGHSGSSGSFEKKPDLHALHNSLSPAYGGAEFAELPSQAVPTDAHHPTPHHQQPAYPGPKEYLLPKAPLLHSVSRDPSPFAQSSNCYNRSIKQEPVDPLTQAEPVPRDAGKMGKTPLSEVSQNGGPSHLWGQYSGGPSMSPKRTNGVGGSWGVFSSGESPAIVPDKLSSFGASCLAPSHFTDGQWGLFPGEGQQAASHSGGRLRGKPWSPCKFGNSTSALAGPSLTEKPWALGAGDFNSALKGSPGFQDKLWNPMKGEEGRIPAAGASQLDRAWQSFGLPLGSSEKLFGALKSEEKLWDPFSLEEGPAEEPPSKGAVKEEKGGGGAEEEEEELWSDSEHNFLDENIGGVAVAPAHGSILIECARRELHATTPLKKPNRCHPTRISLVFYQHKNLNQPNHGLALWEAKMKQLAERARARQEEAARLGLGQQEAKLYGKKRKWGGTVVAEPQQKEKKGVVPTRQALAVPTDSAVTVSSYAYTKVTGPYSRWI

Structure (SMILES) | inhibition of TET1 5hmC formation (TET1) | inhibition of TET3 5hmC formation (TET3) | inhibition of FTO (FTO) | inhibition of ALKBH5 (ALKBH5) | inhibition of wild type KDM4A demethylase activity (MALDI-MS) (wild type KDM4A; H3K9me3 peptide, 200 µM 2OG, fixed concentration of NOG analogue) | dose-dependent inhibition of wild type KDM4A (wild type KDM4A; up to 500 μM) | inhibition of PHD3 (PHD3 (EGLN3))
CCCCCCCCOC(=O)C(=O)NC(CC(C)C)C(=O)O [6A, L-Leu octyl-ester NOG] | No inhibition | No inhibition | – | – | – | – | –
CC(C)CC(NC(=O)C(=O)O)C(=O)O (stereo not shown) [compound 6, N-oxalyl leucine] | – | – | No inhibition | No inhibition | without affecting | no inhibitory effect; also recorded: does not inhibit | No inhibition
